Test results as given in ChEMBL document CHEMBL5728589, “Inhibitors of RIP1 kinase and methods of use thereof” (2021).
“And” between values parts separate entries of the source, which are not always exact repeats. Identical values can stand only once.

Molecular target: T1, Receptor-interacting serine/threonine-protein kinase 1 (Homo sapiens, UniProt Q13546)
T1 sequence (Q13546 whole entry): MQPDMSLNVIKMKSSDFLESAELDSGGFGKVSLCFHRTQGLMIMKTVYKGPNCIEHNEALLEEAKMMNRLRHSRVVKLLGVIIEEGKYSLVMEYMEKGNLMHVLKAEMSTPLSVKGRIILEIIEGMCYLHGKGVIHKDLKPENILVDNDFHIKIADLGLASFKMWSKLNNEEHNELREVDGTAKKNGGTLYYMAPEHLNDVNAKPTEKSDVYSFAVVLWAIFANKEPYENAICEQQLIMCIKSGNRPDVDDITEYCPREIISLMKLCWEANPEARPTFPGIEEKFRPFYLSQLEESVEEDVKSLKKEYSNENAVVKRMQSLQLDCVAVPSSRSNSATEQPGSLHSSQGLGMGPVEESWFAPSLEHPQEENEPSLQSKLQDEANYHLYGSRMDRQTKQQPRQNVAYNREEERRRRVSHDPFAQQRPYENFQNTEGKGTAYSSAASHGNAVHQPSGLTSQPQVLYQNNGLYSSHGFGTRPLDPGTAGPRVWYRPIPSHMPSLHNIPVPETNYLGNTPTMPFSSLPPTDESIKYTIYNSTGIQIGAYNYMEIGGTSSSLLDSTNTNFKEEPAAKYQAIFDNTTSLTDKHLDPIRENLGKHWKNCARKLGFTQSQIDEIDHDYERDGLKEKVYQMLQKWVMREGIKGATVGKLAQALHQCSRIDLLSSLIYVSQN
Assay: Enzyme Assay: The ability of the receptor interacting protein kinase (RIPK1) to catalyze the hydrolysis of adenosine-5′-triphosphate (ATP) is monitored using the Transcreener ADP (adenosine-5′-diphosphate) assay (BellBrook Labs).

With CCC(F)(F)[C@H]1CCc2nc(C(=O)N[C@H]3CCc4cc(F)cc(F)c4NC3=O)nn21 the Ki was 21 nM and 14 nM.
